The nature of series [1]: Cytotoxicity against human HL-60 cells by resazurin dye based fluorescence assay. The class given is cell-based.
Series [2] in a line: Selectivity index, ratio of GI50 for human HL-60 cells to GI50 for antitrypanosomal activity against Trypanosoma brucei brucei S427. The class given is toxicity. Particulars: read-out: RatioGI50.
For series [3], the system named is Trypanosoma brucei brucei. Kind of series: Antitrypanosomal activity against Trypanosoma brucei brucei S427 by resazurin dye based fluorescence assay. In kind it is functional.

We go through nine compounds from ChEMBL document CHEMBL4732069, “Singly and doubly modified analogues of C20-epi-salinomycin: A new group of antiparasitic agents against Trypanosoma brucei” (Eur J Med Chem, 2021).

A value given as a limit tells only on which side of the number the result lay.

For `CC[C@@H](C(=O)[C@@H](C)[C@@H](O)[C@H](C)[C@@H]1O[C@@H]([C@@H](CC)C(=O)ONC(=O)c2ccccc2O)CC[C@@H]1C)[C@H]1O[C@]2(C=C[C@H](O)[C@]3(CC[C@@](C)([C@H]4CC[C@](O)(CC)[C@H](C)O4)O3)O2)[C@H](C)C[C@@H]1C`, the figures for the 50% growth inhibitory concentration (GI50) in series [1] and in series [3] were 33.2 µM and 2.81 µM, respectively. Besides, in series [2], the selectivity ratio is 11.8.

`CC[C@@H](C(=O)[C@@H](C)[C@@H](O)[C@H](C)[C@@H]1O[C@@H]([C@@H](CC)C(=O)O)CC[C@@H]1C)[C@H]1O[C@]2(C=C[C@H](OC(=O)C(C)C)[C@]3(CC[C@@](C)([C@H]4CC[C@](O)(CC)[C@H](C)O4)O3)O2)[C@H](C)C[C@@H]1C`: the GI50 amounted to 21.6 µM in series [1] and 0.036 µM in series [3]. Besides, in series [2], the selectivity ratio turned out to be 90.

Take `C#CCNC(=O)[C@H](CC)[C@H]1CC[C@H](C)[C@H]([C@@H](C)[C@H](O)[C@H](C)C(=O)[C@H](CC)[C@H]2O[C@]3(C=C[C@H](O)[C@]4(CC[C@@](C)([C@H]5CC[C@](O)(CC)[C@H](C)O5)O4)O3)[C@H](C)C[C@@H]2C)O1`: the 50% growth inhibitory concentration (GI50) in series [1] is 44.8 µM; in series [3], 2.97 µM. In series [2], the selectivity ratio was 15.1.

On to `Cc1ccc(C(=O)Nc2ccc(S(=O)(=O)O)c3cc(S(=O)(=O)O)cc(S(=O)(=O)O)c23)cc1NC(=O)c1cccc(NC(=O)Nc2cccc(C(=O)Nc3cc(C(=O)Nc4ccc(S(=O)(=O)O)c5cc(S(=O)(=O)O)cc(S(=O)(=O)O)c45)ccc3C)c2)c1` [SURAMIN], for which the GI50 in series [1] was > 100 µM; in series [3], 0.058 µM. Further, the selectivity ratio in series [2] was > 1720.

Turning to `C#CCOC(=O)[C@H](CC)[C@H]1CC[C@H](C)[C@H]([C@@H](C)[C@H](O)[C@H](C)C(=O)[C@H](CC)[C@H]2O[C@]3(C=C[C@H](OC(=O)OCC)[C@]4(CC[C@@](C)([C@H]5CC[C@](O)(CC)[C@H](C)O5)O4)O3)[C@H](C)C[C@@H]2C)O1`, the GI50 in series [1] is > 100 µM; in series [3] it was 15 µM. The selectivity ratio in series [2] was > 312.

In the case of `CC[C@@H](C(=O)[C@@H](C)[C@@H](O)[C@H](C)[C@@H]1O[C@@H]([C@@H](CC)C(=O)ONC(=O)c2ccccc2)CC[C@@H]1C)[C@H]1O[C@]2(C=C[C@H](O)[C@]3(CC[C@@](C)([C@H]4CC[C@](O)(CC)[C@H](C)O4)O3)O2)[C@H](C)C[C@@H]1C`, the results for the GI50 in series [1] and in series [3] were 9.54 µM and 0.32 µM, respectively. Further, the selectivity ratio in series [2] is 29.8.

For the compound `CC[C@@H](C(=O)[C@@H](C)[C@@H](O)[C@H](C)[C@@H]1O[C@@H]([C@@H](CC)C(=O)O)CC[C@@H]1C)[C@H]1O[C@]2(C=C[C@H](OC(=O)OCC(C)(C)C)[C@]3(CC[C@@](C)([C@H]4CC[C@](O)(CC)[C@H](C)O4)O3)O2)[C@H](C)C[C@@H]1C`, the figures for the GI50 in series [1] and in series [3] were 42.4 µM and 21.6 µM, respectively. In series [2], the selectivity ratio amounted to 2.

Regarding `CC[C@@H](C(=O)[C@@H](C)[C@@H](O)[C@H](C)[C@@H]1O[C@@H]([C@@H](CC)C(=O)ONC(=O)c2ccccc2)CC[C@@H]1C)[C@H]1O[C@]2(C=C[C@H](OC(C)=O)[C@]3(CC[C@@](C)([C@H]4CC[C@](O)(CC)[C@H](C)O4)O3)O2)[C@H](C)C[C@@H]1C`, the GI50 in series [1] stood at 19.1 µM; in series [3] it was 0.47 µM. Further, the selectivity ratio in series [2] worked out at 18.2.

For `CC[C@@H](C(=O)[C@@H](C)[C@@H](O)[C@H](C)[C@@H]1O[C@@H]([C@@H](CC)C(=O)O)CC[C@@H]1C)[C@H]1O[C@]2(C=C[C@H](OC(=O)Nc3ccccc3)[C@]3(CC[C@@](C)([C@H]4CC[C@](O)(CC)[C@H](C)O4)O3)O2)[C@H](C)C[C@@H]1C`, the GI50 in series [1] was found to be 57.2 µM; in series [3], 3.15 µM. Moreover, in series [2], the selectivity ratio is 18.2.
